Results reported in patent US20260041679A1, “METHOD OF TREATING HYPERTENSION WITH THE ALDOSTERONE SYNTHASE INHIBITOR BAXDROSTAT” (CINCOR PHARMA, INC., priority 2022, published 2026).

System: patients with uHTN
Experiment: Study 124 Part 1: seated SBP in patients with uncontrolled hypertension (Example 9)
Assay type: in vivo, human
Parameters: key to Model-Based Least-Squares Mean Change from Baseline (SBP) / LSMEANS change from baseline (SBP) / Model-Based Least-Square Mean Change from Baseline (SBP): LS mean change from baseline in seated SBP, mmHg
Protocol: Study 124 is a double-blind, placebo-controlled, dose range finding, multicenter study conducted in patients with uHTN receiving background antihypertensive agent(s) that are either an ACEI or an ARB, an ACEI/ARB plus a thiazide diuretic, or an ACEI/ARB plus a calcium channel blocker. The study consists of two parts: Part 1 consists of an 8-week treatment period in which the patients are to be assigned to one of 4 dose groups in equal ratio testing 0.5 mg, 1 mg, and 2 mg baxdrostat effects compared to a placebo. Patients are to administer double-blind baxdrostat tablets once per day while they continue taking the background antihypertensive medications. After 8 weeks of double-blind treatment, patients were to enter part 2 of the study unless the patient was assigned to the 2 mg group and the SBP remains ≥130 mmHg. In part 2 of the study, all patients are to cease dosing with background antihypertensive medication and take only baxdrostat 2 mg dose as a monotherapy for 4 weeks.
Key inclusion criteria include that patients are on a stable regimen of anti-hypertensive agents for at least 8 weeks; and have a seated BP≥140 mmHg. Key exclusion criteria include a seated SBP≥180 mmHg and estimated glomerular filtration rate (eGFR)<30 mL/min/1.73 m^2.
In this table, CI=confidence interval, DBP=diastolic blood pressure, LS=least squares, SBP=systolic blood pressure, SE=standard error. The LS means, CIs, and p-values are from an MMRM model with change from baseline as the dependent variable with randomized treatment, visit, and treatment-by-visit interaction as fixed categorical effects; along with covariates of the baseline value, race (African American versus non-African American), and the type of background antihypertensive regimen. The restricted maximum likelihood estimation (REML) approach will be used with an unstructured covariance matrix and the Kenward-Roger approximation for degrees of freedom.

[1] = 0.5 mg (N = 11), mITT Population for Compliance for Black Patients
[2] = 0.5 mg (N = 11), mITT, Female Non-Hispanic Female Patients
[3] = 0.5 mg (N = 12), mITT, Non-Hispanic Male Patients
[4] = 0.5 mg (N = 15), mITT, Hispanic Male Patients
[5] = 1 mg (N = 11), mITT, Female Non-Hispanic Female Patients
[6] = 1 mg (N = 13), mITT Population for Compliance for Black Patients
[7] = 1 mg (N = 14), mITT, Female Hispanic/Latino Patients
[8] = 1 mg (N = 14), mITT, Hispanic Male Patients
[9] = 1 mg (N = 22), mITT, Non-Hispanic Male Patients

Structure (SMILES): CCC(=O)N[C@@H]1CCCc2c(-c3ccc4c(c3)CCC(=O)N4C)cncc21 [baxdrostat, (R)—N-(4-(1-methyl-2-oxo-1,2,3,4-tetrahydroquinolin-6-yl)-5,6,7,8-tetrahydroisoquinolin-8-yl) propionamide]
- SBP Change from Baseline to Week 8, Mean (0.5 mg): −17.0 mmHg
- SBP Change from Baseline to Week 8, Median (0.5 mg): −17.0 mmHg
- SBP at Week 8, Median (0.5 mg): 127.0 mmHg
- Model-Based Least-Square Mean Change from Baseline (SBP) (0.5 mg (N = 11), Week 2, mITT Population for Compliance for Black Patients): −9.0
- Model-Based Least-Squares Mean Change from Baseline (SBP) (0.5 mg (N = 11), Week 2, mITT, Female Non-Hispanic Female Patients): −12.5
- Model-Based Least-Square Mean Change from Baseline (SBP) (0.5 mg (N = 11), Week 4, mITT Population for Compliance for Black Patients): −11.6
- Model-Based Least-Squares Mean Change from Baseline (SBP) (0.5 mg (N = 11), Week 4, mITT, Female Non-Hispanic Female Patients): −12.2
- Model-Based Least-Square Mean Change from Baseline (SBP) (0.5 mg (N = 11), Week 6, mITT Population for Compliance for Black Patients): −13.0
- Model-Based Least-Squares Mean Change from Baseline (SBP) (0.5 mg (N = 11), Week 6, mITT, Female Non-Hispanic Female Patients): −11.8
- Model-Based Least-Square Mean Change from Baseline (SBP) (0.5 mg (N = 11), Week 8, mITT Population for Compliance for Black Patients): −17.2
- Model-Based Least-Squares Mean Change from Baseline (SBP) (0.5 mg (N = 11), Week 8, mITT, Female Non-Hispanic Female Patients): −16.7
- Comp w/ Placebo at Week 6, Diff (95% CI) [1]: −2.6 (−14.94, 9.64)
- Comp w/ Placebo at Week 8, Diff (95% CI) [1]: −3.0 (−13.58, 7.49)
- Comp w/ Placebo at Week 6, Diff (95% CI) [2]: −1.5 (−13.92, 10.84)
- Comp w/ Placebo at Week 8, Diff (95% CI) [2]: −3.7 (−13.14, 5.67)
- Model-Based Least-Squares Mean Change from Baseline (SBP) (0.5 mg (N = 12), Week 2, mITT, Non-Hispanic Male Patients): −19.9
- Model-Based Least-Squares Mean Change from Baseline (SBP) (0.5 mg (N = 12), Week 4, mITT, Non-Hispanic Male Patients): −20.5
- Model-Based Least-Squares Mean Change from Baseline (SBP) (0.5 mg (N = 12), Week 6, mITT, Non-Hispanic Male Patients): −16.3
- Model-Based Least-Squares Mean Change from Baseline (SBP) (0.5 mg (N = 12), Week 8, mITT, Non-Hispanic Male Patients): −17.2
- Comp w/ Placebo at Week 6, Diff (95% CI) [3]: −6.4 (−17.23, 4.48)
- Comp w/ Placebo at Week 8, Diff (95% CI) [3]: −2.2 (−12.46, 8.04)
- Model-Based Least-Squares Mean Change from Baseline (SBP) (0.5 mg (N = 15), Week 2, mITT, Hispanic Male Patients): −8.3
- Model-Based Least-Squares Mean Change from Baseline (SBP) (0.5 mg (N = 15), Week 4, mITT, Hispanic Male Patients): −12.6
- Model-Based Least-Squares Mean Change from Baseline (SBP) (0.5 mg (N = 15), Week 6, mITT, Hispanic Male Patients): −16.0
- Model-Based Least-Squares Mean Change from Baseline (SBP) (0.5 mg (N = 15), Week 8, mITT, Hispanic Male Patients): −18.6
- Comp w/ Placebo at Week 6, Diff (95% CI) [4]: −4.7 (−12.73, 3.30)
- Comp w/ Placebo at Week 8, Diff (95% CI) [4]: 0.1 (−6.20, 6.41)
- SBP at Week 8, Mean (0.5 mg QD, mITT): 129.1 mmHg
- SBP LS mean change from baseline (SE), MMRM (0.5 mg, Week 8): −17 (1.63) mm Hg
- SBP LS mean difference (SE) vs placebo (0.5 mg, Week 8): −0.5 (2.21) mmHg
- LS Mean Change from Baseline (SE) in SBP (0.5 mg, Wk 2): −10.3 (1.61) mm Hg
- LS Mean Change from Baseline (SE) in SBP (0.5 mg, Wk 4): −14.2 (1.61) mm Hg
- LS Mean Change from Baseline (SE) in SBP (0.5 mg, Wk 6): −13.5 (1.88) mm Hg
- SBP Change from Baseline to Week 8, Mean (1 mg): −16.6 mmHg
- SBP Change from Baseline to Week 8, Median (1 mg): −16.0 mmHg
- SBP at Week 8, Median (1 mg): 128.0 mmHg
- Model-Based Least-Squares Mean Change from Baseline (SBP) (1 mg (N = 11), Week 2, mITT, Female Non-Hispanic Female Patients): −11.8
- Model-Based Least-Squares Mean Change from Baseline (SBP) (1 mg (N = 11), Week 4, mITT, Female Non-Hispanic Female Patients): −13.5
- Model-Based Least-Squares Mean Change from Baseline (SBP) (1 mg (N = 11), Week 6, mITT, Female Non-Hispanic Female Patients): −20.3
- Model-Based Least-Squares Mean Change from Baseline (SBP) (1 mg (N = 11), Week 8, mITT, Female Non-Hispanic Female Patients): −23.8
- Comp w/ Placebo at Week 6, Diff (95% CI) [5]: −10.0 (−22.06, 2.15)
- Comp w/ Placebo at Week 8, Diff (95% CI) [5]: −10.8 (−20.05, −1.63)
- Model-Based Least-Square Mean Change from Baseline (SBP) (1 mg (N = 13), Week 2, mITT Population for Compliance for Black Patients): −8.9
- Model-Based Least-Square Mean Change from Baseline (SBP) (1 mg (N = 13), Week 4, mITT Population for Compliance for Black Patients): −11.8
- Model-Based Least-Square Mean Change from Baseline (SBP) (1 mg (N = 13), Week 6, mITT Population for Compliance for Black Patients): −13.5
- Model-Based Least-Square Mean Change from Baseline (SBP) (1 mg (N = 13), Week 8, mITT Population for Compliance for Black Patients): −17.4
- Comp w/ Placebo at Week 6, Diff (95% CI) [6]: −3.1 (−14.59, 8.31)
- Comp w/ Placebo at Week 8, Diff (95% CI) [6]: −3.2 (−12.88, 6.52)
- Model-Based Least-Squares Mean Change from Baseline (SBP) (1 mg (N = 14), Week 2, mITT, Female Hispanic/Latino Patients): −7.8
- Model-Based Least-Squares Mean Change from Baseline (SBP) (1 mg (N = 14), Week 2, mITT, Hispanic Male Patients): −7.0
- Model-Based Least-Squares Mean Change from Baseline (SBP) (1 mg (N = 14), Week 4, mITT, Female Hispanic/Latino Patients): −10.3
- Model-Based Least-Squares Mean Change from Baseline (SBP) (1 mg (N = 14), Week 4, mITT, Hispanic Male Patients): −6.4
- Model-Based Least-Squares Mean Change from Baseline (SBP) (1 mg (N = 14), Week 6, mITT, Female Hispanic/Latino Patients): −12.6
- Model-Based Least-Squares Mean Change from Baseline (SBP) (1 mg (N = 14), Week 6, mITT, Hispanic Male Patients): −9.2
- Model-Based Least-Squares Mean Change from Baseline (SBP) (1 mg (N = 14), Week 8, mITT, Female Hispanic/Latino Patients): −12.7
- Model-Based Least-Squares Mean Change from Baseline (SBP) (1 mg (N = 14), Week 8, mITT, Hispanic Male Patients): −15.8
- Comp w/ Placebo at Week 6, Diff (95% CI) [7]: −6.2 (−19.55, 7.07)
- Comp w/ Placebo at Week 8, Diff (95% CI) [7]: 6.4 (−5.38, 18.10)
- Comp w/ Placebo at Week 6, Diff (95% CI) [8]: 2.1 (−6.16, 10.29)
- Comp w/ Placebo at Week 8, Diff (95% CI) [8]: 2.9 (−3.41, 9.25)
- Model-Based Least-Squares Mean Change from Baseline (SBP) (1 mg (N = 22), Week 2, mITT, Non-Hispanic Male Patients): −6.8
- Model-Based Least-Squares Mean Change from Baseline (SBP) (1 mg (N = 22), Week 4, mITT, Non-Hispanic Male Patients): −10.3
- Model-Based Least-Squares Mean Change from Baseline (SBP) (1 mg (N = 22), Week 6, mITT, Non-Hispanic Male Patients): −14.2
- Model-Based Least-Squares Mean Change from Baseline (SBP) (1 mg (N = 22), Week 8, mITT, Non-Hispanic Male Patients): −14.7
- Comp w/ Placebo at Week 6, Diff (95% CI) [9]: −4.3 (−13.56, 5.00)
- Comp w/ Placebo at Week 8, Diff (95% CI) [9]: 0.2 (−8.82, 9.26)
- SBP at Week 8, Mean (1 mg QD, mITT): 130.8 mmHg
- SBP LS mean change from baseline (SE), MMRM (1 mg, Week 8): −16 (1.62) mm Hg
- SBP LS mean difference (SE) vs placebo (1 mg, Week 8): 0.6 (2.20) mmHg
- LS Mean Change from Baseline (SE) in SBP (1 mg, Wk 2): −7.7 (1.6) mm Hg
- LS Mean Change from Baseline (SE) in SBP (1 mg, Wk 4): −9.7 (1.59) mm Hg
